According to US20250009743A1, “METHODS OF TREATING CANCERS USING STING AGONISTS” (Dana-Farber Cancer Institute, Inc., priority 2021, published 2025):
pIC50: −log10 of the molar value.

Key:
PBM tumor cells = assay: Measurement of IC50 value in PBM tumor cells (CellTiter-Glo); type: cell-based; conditions: Mus musculus; reference value for the PBM-R3 fold; 72 h
Procedure: Tumor cells were seeded in 96-well plates at a density of 2000-3000/well and allowed to adhere overnight. Cells were then exposed to appropriate concentrations of therapeutic agents (or vehicle control) with continuous exposure for 72 h. Growth inhibition was measured by CellTiter-Glo® 2.0 Cell Viability Assay from Promega according to manufactory's introduction. IC50 values were calculated using non-linear regression model (logarithmic inhibitor vs. normalized response-variable slope) in Graphpad Prism 9.

[1] = test system: STAT3 phosphorylation in PBM tumor cells; assay: p-STAT3 (Y705) in PBM tumor cells (flow cytometry, Western blot); type: cell-based, mouse; conditions: PARPi-naïve PBM cells, 24 hours; FIGS. 19D and 20B
Procedure: (§1) Analysis of p-STAT3 and γ-H2AX (p-HA2X-Ser139) was performed according to a two-step protocol for intracellular phosphorylated signaling proteins (Thermo Fisher). Briefly, cells were incubated with LIVE/DEAD Fixable Aqua Dead Cell Stain for 30 min. After washing, cells were suspended in 100 μl PBS and then fixed by adding an equal volume of IC Fixation Buffer (CAT #00-822-49, Thermo Fisher) directly to cells and incubated at room temperature for 20 min followed by fixing with ice-cold 90% methanol in PBS for 30 min. The fixed cells were blocked and stained with p-STAT3 or γ-H2AX antibodies for flow cytometry analysis as described above.
Tumor cells were harvested and lysed with ice-cold RIPA buffer supplemented with protease phosphatase inhibitor cocktail (Thermo Fisher). Protein concentration was determined using a Pierce BCA Protein Assay Kit (Thermo Fisher). About 50 μg protein extracts were loaded and separated by SDS-PAGE, and then transferred to polyvinylidene fluoride (PVDF) membranes. After blocking with 5% non-fat milk (Bio-Rad) in PBST (PBS plus 0.2% Tween 20) at room temperature for 1 hr, membranes were incubated with primary antibodies overnight at 4° C.

PBM-R tumor cells = assay: γ-H2AX flow cytometry in PBM-R cells; type: cell-based, mouse; conditions: 1 μM olaparib 24 hours
Procedure: as §1

[2] = test system: ovarian PDXs DF86, DF101, DF118 and DF149; assay: p-STAT3 (Y705) in PARPi-resistant ovarian PDX cells; type: cell-based, human; conditions: 5 μM olaparib for 24 hours; FIG. 25B
Text: UWB1.289 and UWB1.289+BRCA1 were purchased from ATCC and cultured in epithelial complete growth medium (50% ATCC-formulated RPMI-1640 medium, 50% MEGM medium and 3% fetal bovine serum) as described previously (Ding et al., 2018, Cell Rep 25, 2972-2980.e2975). ID8-Brca^+/+ and ID8-Brca^−/− cells were previously generated by CRISPR-Cas9 technology. The ovarian cancer patient-derived tumor xenografts (PDX) were established at Dana-Farber Cancer Institute by intraperitoneally implanting tumor cells that isolated from patients' ascites into irradiated nude mice (Liu et al., 2017; Clinical cancer research: an official journal of the American Association for Cancer Research 23, 1263-1273). The established PDX models were maintained by intraperitoneally transplantation in NOD/SCID IL2Rgnull mice (NSG, The Jackson Laboratory). The ovarian PDX cells could be cultured in the epithelial complete growth medium for about 3 to 4 days for in vitro experiments.
Analysis of p-STAT3 and γ-H2AX (p-HA2X-Ser139) was performed according to a two-step protocol for intracellular phosphorylated signaling proteins (Thermo Fisher). Briefly, cells were incubated with LIVE/DEAD Fixable Aqua Dead Cell Stain for 30 min. […]

With `O=C(c1cc(Cc2n[nH]c(=O)c3ccccc23)ccc1F)N1CCN(C(=O)C2CC2)CC1` [olaparib] the pIC50 (PBM tumor cells) was 6.25, the “phosphorylation of STAT3” value [1] was “increased phosphorylation levels of STAT3 in cultured PBM cells in a dose-dependent manner” and the “DNA damage (γ-H2AX)” value (PBM-R tumor cells; PBM-R3 cells) was “a little DNA damage signaling”. The “DNA damage (γ-H2AX)” value (PBM-R tumor cells; PBM-R tumor cells) was “significantly increased DNA damage” and the “PDX cells with increased phosphorylation level STAT3” value [2] was 3 out of 4.
